The values that follow come from patent publication US8399681B2, “Substituted aminothiazolone indazoles as estrogen related receptor-alpha modulators” (Janssen Pharmaceutica NV, priority 2009, dated 2013).

The experiment has as its target T1, ERR1 (also known as ERR-α or ERR-1) (Homo sapiens, UniProt P11474).
T1 sequence (P11474 193-421 limits assumed): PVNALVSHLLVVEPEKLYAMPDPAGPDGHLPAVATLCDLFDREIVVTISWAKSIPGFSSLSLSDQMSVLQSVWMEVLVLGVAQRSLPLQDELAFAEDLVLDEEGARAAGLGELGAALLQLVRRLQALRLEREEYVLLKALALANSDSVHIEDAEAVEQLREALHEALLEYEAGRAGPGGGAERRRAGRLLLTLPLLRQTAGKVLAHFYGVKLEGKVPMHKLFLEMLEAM
Description: TR-FRET assay (disruption of co-activator peptide binding). In kind it is biochemical. Conditions: 6His-tagged ERR1 LBD, GST-hSRC2 co-activator polypeptide; average of 3 independent experiments. The protocol: Time-Resolved Fluorescence Resonance Energy Transfer (TR-FRET) experiments were performed to examine the functional response of ERR1 (also known as ERR-α or ERR-1) ligands. The TR-FRET assay described herein relied on the conformation of ERR1 for binding to a co-activator peptide: when a test compound binds to ERR1 and alters its conformation, it can disrupt the binding of the co-activator peptide. The components of this homogeneous secondary assay included: the ^6His-tagged-ERR1LBD, a GST-labeled-hSRC2 co-activator polypeptide and a fluorescent donor/acceptor pair from CIS bio international htrf/bioassays (Bedford, Mass.) using both an α-GST Europium Cryptate (Eu) label and an α^6His-XL665 (allophycocyanin) fluorophore.
For TR-FRET measurements, the reaction was buffered in 25 mM Tris pH 8, 2.5 mM Hepes, 20 mM KCl, 1 mM DTT, and 0.05 mg/mL BSA (-lipids). The final concentrations of reagents were 6 nM of ERR1LBD, 6 nM GST-SRC-2 peptide, 30 nM Eu cryptate, and 7.5 nM XL665. Reactions were allowed to reach equilibrium at 25° C. for 4-18 hours before collecting data on the Analyst from LJL Biosystems (Molecular Devices Sunnyvale, Calif.). As a time-resolved method, the samples were excited at […] and emission was collected for 1 ms at both 615 and 665 nm with delays of 400 and 75 μs, respectively. Dose response curves were fitted using a hyperbolic equation and the data reported is the average of 3 independent experiments.
A general note: TR-FRET usually uses a lanthanide donor and a delayed reading to cut background.

The structures appear in SMILES notation.

Regarding `CN1CCN(C2=NC(=O)/C(=C/c3ccc4c(cnn4Cc4ccc(C(N)=O)cc4C(F)(F)F)c3)S2)CC1` [Compound 20, 4-{5-[2-(4-Methyl-piperazin-1-yl)-4-oxo-4H-thiazol-5-ylidenemethyl]-indazol-1-ylmethyl}-3-trifluoromethyl-benzamide], the EC50 (commonly the concentration at which the effect is half-maximal) was 300 nM.
Then `COc1ccc(Cn2ncc3cc(/C=C4\SC(N5CCN(C)CC5)=NC4=O)ccc32)c(C(F)(F)F)c1` [Compound 21, 5-[1-(4-Methoxy-2-trifluoromethyl-benzyl)-1H-indazol-5-ylmethylene]-2-(4-methyl-piperazin-1-yl)-thiazol-4-one], with 3 nM.
In turn, `CN1CCN(C2=NC(=O)/C(=C/c3ccc4c(cnn4Cc4ccc(O)cc4C(F)(F)F)c3)S2)CC1` [Compound 22, 5-[1-(4-Hydroxy-2-trifluoromethyl-benzyl)-1H-indazol-5-ylmethylene]-2-(4-methyl-piperazin-1-yl)-thiazol-4-one] returned an EC50 of 11.4 nM.
Then `CN1CCN(C2=NC(=O)/C(=C/c3ccc4c(cnn4Cc4ccc(OS(C)(=O)=O)cc4C(F)(F)F)c3)S2)CC1` [Compound 23, Methanesulfonic acid 4-{5-[2-(4-methyl-piperazin-1-yl)-4-oxo-4H-thiazol-5-ylidenemethyl]-indazol-1-ylmethyl}-3-trifluoromethyl-phenyl ester], with 10.4 nM.
In turn, `COCCOc1ccc(Cn2ncc3cc(/C=C4\SC(N5CCN(C)CC5)=NC4=O)ccc32)c(C(F)(F)F)c1` [Compound 24, 5-{1-[4-(2-Methoxy-ethoxy)-2-trifluoromethyl-benzyl]-1H-indazol-5-ylmethylene}-2-(4-methyl-piperazin-1-yl)-thiazol-4-one] showed an EC50 of 520 nM.
In turn, `CN1CCN(C2=NC(=O)/C(=C/c3ccc4c(cnn4Cc4ccc(Cl)cc4Cl)c3)S2)CC1` [Example 25, 5-[1-(2,4-Dichloro-benzyl)-1H-indazol-5-ylmethylene]-2-(4-methyl-piperazin-1-yl)-thiazol-4-one] had an EC50 of 68 nM.
The compound `CN1CCN(C2=NC(=O)/C(=C/c3ccc4c(cnn4Cc4ccc(Br)cc4C(F)(F)F)c3)S2)CC1` [Example 26, 5-[1-(4-Bromo-2-trifluoromethyl-benzyl)-1H-indazol-5-ylmethylene]-2-(4-methyl-piperazin-1-yl)-thiazol-4-one] registered an EC50 of 4.8 nM.
Consider `CN1CCN(C2=NC(=O)/C(=C/c3ccc4c(cnn4Cc4ccc(C5CC5)cc4C(F)(F)F)c3)S2)CC1` [Example 27, 5-[1-(4-Cyclopropyl-2-trifluoromethyl-benzyl)-1H-indazol-5-ylmethylene]-2-(4-methyl-piperazin-1-yl)-thiazol-4-one], for which a half-maximal effect (EC50) was put at 11 nM.
The compound `CN1CCN(C2=NC(=O)/C(=C/c3ccc4c(cnn4Cc4ccc(C(F)(F)F)cc4Br)c3)S2)CC1` [Example 28, 5-[1-(2-Bromo-4-trifluoromethyl-benzyl)-1H-indazol-5-ylmethylene]-2-(4-methyl-piperazin-1-yl)-thiazol-4-one] had an EC50 of 59 nM.
Under `CN1CCN(C2=NC(=O)/C(=C/c3ccc4c(cnn4Cc4ccc(C(F)(F)F)cc4C4CC4)c3)S2)CC1` [Example 29, 5-[1-(2-Cyclopropyl-4-trifluoromethyl-benzyl)-1H-indazol-5-ylmethylene]-2-(4-methyl-piperazin-1-yl)-thiazol-4-one] stands 38 nM; under `C=C(C)c1ccc(Cn2ncc3cc(/C=C4\SC(N5CCN(C)CC5)=NC4=O)ccc32)c(C(F)(F)F)c1` [Example 30, 5-[1-(4-Isopropenyl-2-trifluoromethyl-benzyl)-1H-indazol-5-ylmethylene]-2-(4-methyl-piperazin-1-yl)-thiazol-4-one], 23 nM; under `O=C1N=C(N2CCN(CCO)CC2)S/C1=C\c1ccc2c(cnn2Cc2ccc(C3CC3)cc2C(F)(F)F)c1` [Example 31, 5-[1-(4-Cyclopropyl-2-trifluoromethyl-benzyl)-1H-indazol-5-ylmethylene]-2-[4-(2-hydroxy-ethyl)-piperazin-1-yl]-thiazol-4-one], 4.6 nM.
Then `COc1ccc(Cn2ncc3cc(/C=C4\SC(N5C[C@@H](O)[C@H](O)C5)=NC4=O)ccc32)c(C(F)(F)F)c1` [Example 32, 2-(3R,4R-Dihydroxy-pyrrolidin-1-yl)-5-[1-(4-methoxy-2-trifluoromethyl-benzyl)-1H-indazol-5-ylmethylene]-thiazol-4-one], with 10 nM.
Then `COc1ccc(Cn2ncc3cc(/C=C4\SC(N5CC(C(=O)O)C5)=NC4=O)ccc32)c(C(F)(F)F)c1` [Example 33, 1-{5-[1-(4-M ethoxy-2-trifluoromethyl-benzyl)-1H-indazol-5-ylmethylene]-4-oxo-4,5-dihydro-thiazol-2-yl}-azetidine-3-carboxylic acid], with 4.4 nM; and `COc1ccc(Cn2ncc3cc(/C=C4\SC(N5CCNCC5)=NC4=O)ccc32)c(C(F)(F)F)c1` [Example 34, 5-[1-(4-Methoxy-2-trifluoromethyl-benzyl)-1H-indazol-5-ylmethylene]-2-piperazin-1-yl-thiazol-4-one], with 7.5 nM.
`O=C1N=C(N2CC(C(=O)O)C2)S/C1=C\c1ccc2c(cnn2Cc2ccc(Br)cc2C(F)(F)F)c1` [Example 36, 1-{5-[1-(4-Bromo-2-trifluoromethyl-benzyl)-1H-indazol-5-ylmethylene]-4-oxo-4,5-dihydro-thiazol-2-yl}-azetidine-3-carboxylic acid] came in with an EC50 of 5.4 nM.
On to `O=C1N=C(N2CCC[C@H](C(=O)O)C2)S/C1=C\c1ccc2c(cnn2Cc2ccc(C(F)(F)F)cc2C(F)(F)F)c1` [Example 37, 1-{5-[1-(2,4-Bis-trifluoromethyl-benzyl)-1H-indazol-5-ylmethylene]-4-oxo-4,5-dihydro-thiazol-2-yl}-piperidine-3-(S)-carboxylic acid], for which the EC50 was 5.3 nM.
`O=C1N=C(N2CCC[C@@H](C(=O)O)C2)S/C1=C\c1ccc2c(cnn2Cc2ccc(C(F)(F)F)cc2C(F)(F)F)c1` [Example 38, 1-{5-[1-(2,4-Bis-trifluoromethyl-benzyl)-1H-indazol-5-ylmethylene]-4-oxo-4,5-dihydro-thiazol-2-yl}-piperidine-3-(R)-carboxylic acid]: the EC50 turned out to be 9 nM.
As for `COc1ccc(Cn2ncc3cc(/C=C4\SC(N5CCC(C(=O)O)CC5)=NC4=O)ccc32)c(C(F)(F)F)c1` [Example 41, 1-{5-[1-(4-M ethoxy-2-trifluoromethyl-benzyl)-1H-indazol-5-ylmethylene]-4-oxo-4,5-dihydro-thiazol-2-yl}-piperidine-4-carboxylic acid], the midpoint of the response, the EC50, lay at 15 nM.
`CN1CCCN(C2=NC(=O)/C(=C/c3ccc4c(cnn4Cc4ccc(C(F)(F)F)cc4C(F)(F)F)c3)S2)CC1` [Example 42, 5-[1-(2,4-Bis-trifluoromethyl-benzyl)-1H-indazol-5-ylmethylene]-2-(4-methyl-[1,4]diazepan-1-yl)-thiazol-4-one] returned an EC50 of 4.2 nM.
In turn, `O=C1N=C(N2CCC[C@@H]2C(=O)O)S/C1=C\c1ccc2c(cnn2Cc2ccc(C(F)(F)F)cc2C(F)(F)F)c1` [Example 43, 1-{5-[1-(2,4-Bis-trifluoromethyl-benzyl)-1H-indazol-5-ylmethylene]-4-oxo-4,5-dihydro-thiazol-2-yl}-pyrrolidine-2-(R)-carboxylic acid] showed an EC50 of 11 nM.
In turn, `O=C1N=C(N2CCC[C@H]2C(=O)O)S/C1=C\c1ccc2c(cnn2Cc2ccc(Cl)cc2C(F)(F)F)c1` [Example 44, 1-{5-[1-(4-Chloro-2-trifluoromethyl-benzyl)-1H-indazol-5-ylmethylene]-4-oxo-4,5-dihydro-thiazol-2-yl}-pyrrolidine-2-(S)-carboxylic acid] registered an EC50 of 3.2 nM.
Under `COc1ccc(Cn2ncc3cc(/C=C4\SC(N5CCC[C@@H]5C(=O)O)=NC4=O)ccc32)c(C(F)(F)F)c1` [Example 45, 1-{5-[1-(4-M ethoxy-2-trifluoromethyl-benzyl)-1H-indazol-5-ylmethylene]-4-oxo-4,5-dihydro-thiazol-2-yl}-pyrrolidine-2-(R)-carboxylic acid] stands 34 nM.
`O=C1N=C(N2CCC[C@@H]2C(=O)O)S/C1=C\c1ccc2c(cnn2Cc2ccc(Cl)cc2C(F)(F)F)c1` [Example 46, 1-{5-[1-(4-Chloro-2-trifluoromethyl-benzyl)-1H-indazol-5-ylmethylene]-4-oxo-4,5-dihydro-thiazol-2-yl}-pyrrolidine-2-(R)-carboxylic acid]: the EC50 is 27 nM.
The compound `O=C1N=C(N2CCNC[C@@H]2C(=O)O)S/C1=C\c1ccc2c(cnn2Cc2ccc(C(F)(F)F)cc2C(F)(F)F)c1` [Example 47, 1-{5-[1-(2,4-Bis-trifluoromethyl-benzyl)-1H-indazol-5-ylmethylene]-4-oxo-4,5-dihydro-thiazol-2-yl}piperazine-2-(R)-carboxylic acid] registered an EC50 of 8.2 nM.
